PubChem BioAssay (NCI)
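Cells were grown in 96-well plates and exposed to each compound for 48 hours at five concentrations; endpoints were interpolated linearly between bracketing concentrations, or set to the highest concentration if not reached. GI50 = concentration required for 50% inhibition of growth. TGI is the concentration that stops growth completely.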

How the values were obtained:
Assay in all cases: growth of human tumour cells (NCI), 48 h
SN12C renal = tested on: SN12C renal
HL-60(TB) leukemia = tested on: HL-60(TB) leukemia
SK-MEL-2 melanoma = tested on: SK-MEL-2 melanoma
UO-31 renal = tested on: UO-31 renal
SK-MEL-28 melanoma = tested on: SK-MEL-28 melanoma
MOLT-4 leukemia = tested on: MOLT-4 leukemia
MALME-3M melanoma = tested on: MALME-3M melanoma
IGROV1 ovarian = tested on: IGROV1 ovarian
K-562 leukemia = tested on: K-562 leukemia
UACC-257 melanoma = tested on: UACC-257 melanoma

Compound	TGI (SN12C renal) [µM]	TGI (HL-60(TB) leukemia) [µM]	TGI (SK-MEL-2 melanoma) [µM]	TGI (UO-31 renal) [µM]	TGI (SK-MEL-28 melanoma) [µM]	TGI (MOLT-4 leukemia) [µM]	TGI (MALME-3M melanoma) [µM]	TGI (IGROV1 ovarian) [µM]	TGI (K-562 leukemia) [µM]	TGI (UACC-257 melanoma) [µM]	GI50 (SN12C renal) [µM]	GI50 (HL-60(TB) leukemia) [µM]	GI50 (SK-MEL-2 melanoma) [µM]	GI50 (UO-31 renal) [µM]	GI50 (SK-MEL-28 melanoma) [µM]	GI50 (MOLT-4 leukemia) [µM]	GI50 (MALME-3M melanoma) [µM]	GI50 (IGROV1 ovarian) [µM]	GI50 (K-562 leukemia) [µM]	GI50 (UACC-257 melanoma) [µM]
Clc1ccc2c(Cl)nc(-c3ccccc3)nc2c1	> 100	45.8	95	> 100	> 100	84.5	> 100	> 100	> 100	> 100	–	–	–	–	–	–	–	–	–	–
c1ccc(C2=NN[C@H](c3cn(-c4ccccc4)nc3-c3ccccc3)C2)cc1	> 100	> 100	> 100	> 100	> 100	> 100	> 100	> 100	> 100	> 100	4.18	> 100	30.2	2.87	4.89	> 100	8.98	5.57	> 100	> 100
Cc1n(CC(C)C)c2c([n+]1CC(=O)c1ccc([N+](=O)[O-])cc1)C(=O)c1ccccc1C2=O	0.0107	< 0.01	0.0837	30.2	0.902	0.0742	< 0.0205	0.0102	1.33	0.0293	–	–	–	–	–	–	–	–	–	–
